The record followed here is the NIST ThermoML archive (doi:10.1021/je800921n).

Series [1] is described as follows: Molar enthalpy of transition or fusion. The following applies: Crystal; Differential scanning calorimeter. (In general: DSC measures the heat that a sample takes up or gives off during a temperature scan.)
The conditions of series [2]: Crystal; Differential scanning calorimeter.

For `O=C(O)CCCCCCCC(=O)O` [1,9-nonanedioic acid], in series [1], the “Molar enthalpy of transition or fusion” value came to 8.44 kcal/mol. Also, the Normal melting temperature in series [2] is 102.5 °C.
